Reference: patent US6828343B2, “Bicyclic pyrrolyl amides as glycogen phosphorylase inhibitors” (Pfizer, Inc., priority 1999, dated 2004)

melting point: 108 to 110 °C
SMILES: O=C(N[C@@H](Cc1ccccc1)C(=O)N1CCOCC1)c1cc2cc(Cl)sc2[nH]1 [Example 19, 2-chloro-6H-thieno[2,3-b]pyrrole-5-carboxylic acid [(1S)-benzyl-2-morpholin-4-yl-2-oxo-ethyl]-amide]
